The structures appear in SMILES notation.

Usually IC50 stands for the midpoint of a concentration-inhibition curve.

The first test concerns the target T1, full-length human PKCι (Homo sapiens, UniProt P41743).
T1 construct: Recombinant, full-length human PKCι expressed in Sf21 insect cells is also commercially available; purchased; host or cells: Sf21 insect cells
T1 sequence (P41743 1-596): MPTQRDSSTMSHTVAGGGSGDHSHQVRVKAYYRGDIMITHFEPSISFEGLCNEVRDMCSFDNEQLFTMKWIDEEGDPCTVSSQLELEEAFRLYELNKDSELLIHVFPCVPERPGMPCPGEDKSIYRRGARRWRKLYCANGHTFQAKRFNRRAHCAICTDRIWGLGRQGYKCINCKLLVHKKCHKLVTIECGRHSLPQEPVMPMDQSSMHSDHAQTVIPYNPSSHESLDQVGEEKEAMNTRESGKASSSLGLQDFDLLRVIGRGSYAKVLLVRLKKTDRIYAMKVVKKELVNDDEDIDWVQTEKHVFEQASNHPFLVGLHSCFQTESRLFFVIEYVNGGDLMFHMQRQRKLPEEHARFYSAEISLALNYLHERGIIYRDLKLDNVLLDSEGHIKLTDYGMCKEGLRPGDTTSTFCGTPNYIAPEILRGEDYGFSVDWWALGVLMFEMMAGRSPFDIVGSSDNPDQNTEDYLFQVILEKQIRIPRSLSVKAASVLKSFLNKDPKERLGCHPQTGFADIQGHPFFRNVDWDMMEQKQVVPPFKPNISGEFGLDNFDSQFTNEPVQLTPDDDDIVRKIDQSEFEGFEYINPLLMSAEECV
The test can be described thus: PKCι IC50 IMAP fluorescence polarisation assay, full-length enzyme. Conditions: full length PKCi at 15 μM ATP; read-out: IC50 in IMAP assay against full length PKCi. The format is biochemical. Here is the method:
Assays are based on the ability of PKCι to phosphorylate a commercially available peptide substrate in vitro. […] Recombinant, full-length human PKCι expressed in Sf21 insect cells is also commercially available. Recombinant, kinase-domain human PKCι is expressed and purified in-house.
The procedure below explains how dose response curves for inhibitors of PKCι are obtained.
Compounds to be tested are dissolved in 100% DMSO. […] 1 μl is plated into 384 well black low-binding flat bottomed assay plates which are used immediately. Dilutions and additions of compound to assay plates are carried out using Matrix WellMate® and Matrix PlateMate® Plus liquid handling systems.
The final concentration of peptide substrate in the assay is 100 nM. […] Relevant controls are included, namely no compound and no enzyme. […] The reaction is allowed to incubate for 60 minutes at room temperature, before the reaction is stopped and developed by the addition of 20 μl IMAP™ development reagent (Molecular Devices). IMAP development reagent consists of 0.25% (v/v) IMAP progressive binding reagent, 17% (v/v) IMAP progressive binding buffer A and 3% (v/v) IMAP progressive binding buffer B. The plates are then incubated for 2 hours at room temperature before being read using an appropriate plate reader, for example a Molecular Devices HT Analyst or a BMG Pherastar.
(In general: In fluorescence polarisation assays a small probe gives low polarisation when free and higher when bound to something large.)
Take `Cc1c(-c2ccnn2C)sc2c(N[C@@H]3CCNC3)nc(-c3ccncc3)nc12` [compound 469, [7-Methyl-6-(2-methyl-2H-pyrazol-3-yl)-2-pyridin-4-yl-thieno[3,2-d]pyrimidin-4-l]-(R)-pyrrolidin-3-yl-amine]: the half-maximal inhibitory concentration (IC50) fell in the range of 10000 to 40000 nM.

As to `CC(C)(C)NC(=O)c1csc2c(NC[C@@H](N)Cc3ccccc3)nc(-c3ccncc3)nc12` [compound 557, 4-((S)-2-Amino-3-phenyl-propylamino)-2-pyridin-4-yl-thieno[3,2-d]pyrimidine-7-carboxylic acid tert-butylamide], the IC50 was in the range of 1000 to 10000 nM.

As for `N[C@H](CNc1nc(-c2ccncc2F)nc2ccsc12)Cc1ccccc1` [compound 355, (S)-N*1*-[2-(3-Fluoro-pyridin-4-yl)-thieno[3,2-d]pyrimidin-4-yl]-3-phenyl-propane-1,2-diamine], the IC50 lay in the range of 1000 to 10000 nM.

Turning to `CC(C)(O)CC#Cc1csc2c(NC[C@@H](N)Cc3ccccc3)nc(-c3ccncc3)nc12` [compound 537, 5-[4-((S)-2-Amino-3-phenyl-propylamino)-2-pyridin-4-yl-thieno[3,2-d]pyrimidin-7-yl]-2-methyl-pent-4-yn-2-ol], the IC50 is 100 to 1000 nM.

With `CC[C@](C)(O)C#Cc1csc2c(NC[C@@H](N)Cc3ccccc3)nc(-c3ccncc3)nc12` [compound 523, (S)-1-[4-((S)-2-Amino-3-phenyl-propylamino)-2-pyridin-4-yl-thieno[3,2-d]pyrimidin-7-yl]-3-methyl-pent-1-yn-3-ol], the IC50 lay in the range of 100 to 1000 nM.

For the molecule `NCc1ccc(-c2csc3c(NCC(N)Cc4ccccc4)nc(-c4ccncc4F)nc23)cc1` (stereo in doubt) [compound 427, (R)-N*1*-[7-(4-Aminomethyl-phenyl)-2-(3-fluoro-pyridin-4-yl)-thieno[3,2-d]pyrimidin-4-yl]-3-phenyl-propane-1,2-diamine], the IC50 is 1000 to 10000 nM.

`Cc1ccc(Nc2cc(-c3nc(N[C@@H]4CCNC4)c4sccc4n3)ccn2)nn1` [compound 588, {2-[2-(6-Methyl-pyridazin-3-ylamino)-pyridin-4-yl]-thieno[3,2-d]pyrimidin-4-yl}-(R)-pyrrolidin-3-yl-amine]: the IC50 lay within 100 to 1000 nM.

Turning to `CC[C@@H](Nc1cc(-c2nc(N[C@@H]3CCNC3)c3sccc3n2)ccn1)c1ccccc1` [compound 590, {2-[2-((R)-1-Phenyl-propylamino)-pyridin-4-yl]-thieno[3,2-d]pyrimidin-4-yl}-(R)-pyrrolidin-3-yl-amine], the IC50 was 1000 to 10000 nM.

On to `N[C@@H](CNc1nc(-c2ccncc2)nc2c(-c3ccc(Br)cc3)csc12)Cc1ccccc1` [compound 327, (R)-N*1*-[7-(4-Bromo-phenyl)-2-pyridin-4-yl-thieno[3,2-d]pyrimidin-4-yl]-3-phenyl-propane-1,2-diamine], for which the IC50 fell in the range of 1000 to 10000 nM.

As to `NC(CNc1nc(-c2ccncc2F)nc2c(-c3ccc(CO)cc3)csc12)Cc1ccccc1` (stereo in doubt) [compound 424, {4-[4-((R)-2-Amino-3-phenyl-propylamino)-2-(3-fluoro-pyridin-4-yl)-thieno[3,2-d]pyrimidin-7-yl]-phenyl}-methanol], the IC50 is 1000 to 10000 nM.

Staying with this test, now noted: full length PKCi at 15 μM ATP; read-out: IC50 in IMAP assay against full length PKCi (Activity).
On to `NCCNc1nc(-c2ccncc2)nc2sc3c(c12)CCN(C(=O)C1CC1)C3` [compound 108, [4-(2-Amino-ethylamino)-2-pyridin-4-yl-5,8-dihydro-6H-pyrido[4′,3′:4,5]thieno[2,3-d]pyrimidin-7-yl]-cyclopropyl-methanone], for which the IC50 lay in the range of 10000 to 40000 nM.

In the case of `N[C@@H](CNc1nc(-c2ccncc2)nc2sc3c(c12)CCOC3)Cc1ccccc1` [compound 83, (R)-3-Phenyl-N*1*-(2-pyridin-4-yl-5,8-dihydro-6H-pyrano[4′,3′:4,5]thieno[2,3-d]pyrimidin-4-yl)-propane-1,2-diamine], the IC50 lay in the range of 10000 to 40000 nM.

For `COc1ccc(C[C@H](N)CNc2nc(-c3ccncc3)nc3sc4c(c23)CCCC4)cc1` [compound 47, (S)-3-(4-Methoxy-phenyl)-N*1*-(2-pyridin-4-yl-5,6,7,8-tetrahydro-benzo[4,5]thieno[2,3-d]pyrimidin-4-yl)-propane-1,2-diamine], the IC50 was in the range of 100 to 1000 nM.
